Experimental data taken from patent US20230339851A1, “CXCR6 SULFONAMIDE COMPOUNDS” (CHEMOCENTRYX, INC., priority 2022, published 2023).

Biological target: T1, human CXCR6 (Homo sapiens, UniProt O00574)
T1 construct: expressed in transfected cells
Assay: Radioligand Binding Assay (125I-CXCL16 displacement)
Conditions: L1.2 cells stably transfected with human CXCR6 cDNA, 0.1 nM 125I-CXCL16, 4° C., three-hour incubation; read-out: Potency (IC50)
In short: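 Displacement of 0.1 nM 125I-CXCL16 from human CXCR6 stably expressed in L1.2 cells was measured after a 3 h, 4 °C incubation in HBSS with 0.1% BSA. Filter-bound cpm were counted, and IC50 values came from a 3-parameter nonlinear fit.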

T1 sequence (O00574 whole entry): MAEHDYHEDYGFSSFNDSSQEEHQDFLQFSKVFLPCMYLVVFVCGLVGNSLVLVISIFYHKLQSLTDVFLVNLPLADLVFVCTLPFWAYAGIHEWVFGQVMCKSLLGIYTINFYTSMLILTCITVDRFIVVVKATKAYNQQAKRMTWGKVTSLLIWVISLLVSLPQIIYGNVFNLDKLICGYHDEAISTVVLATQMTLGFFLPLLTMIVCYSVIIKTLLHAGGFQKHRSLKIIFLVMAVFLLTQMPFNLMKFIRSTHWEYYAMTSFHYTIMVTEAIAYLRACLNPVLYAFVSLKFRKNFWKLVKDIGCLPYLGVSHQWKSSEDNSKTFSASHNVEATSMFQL

IC50 [nM]	Compound
≤ 200	CCOc1cc(NC(=O)[C@H](CO)C(C)C)ccc1S(=O)(=O)Nc1cccc(OC(F)(F)F)c1 [Example 1.139]
200 to 750	CCOc1cc(NC(=O)C(C)O)ccc1S(=O)(=O)Nc1cccc(OC(F)(F)F)c1 (centres unmarked) [Example 1.532]
≤ 200	CCOc1cc(NC(=O)c2cccnc2N)ccc1S(=O)(=O)Nc1cccc(OC(F)(F)F)c1 [Example 1.162]
≤ 200	CCOc1cc(NC(=O)[C@@H](N)C(C)CC)ccc1S(=O)(=O)Nc1cccc(OC(F)(F)F)c1 (some centres unmarked) [Example 1.243]
≤ 200	CCOc1cc(NC(=O)C(CO)C2CCC2)ccc1S(=O)(=O)Nc1cccc(OC(F)(F)F)c1 (centres unmarked) [Example 1.376]
750 to 2000	CCOc1cc(NC(=O)[C@@H](CO)c2ccccc2)ccc1S(=O)(=O)Nc1cccc(Cl)c1Cl [Example 1.272]
750 to 2000	CCOc1cc(NC(=O)C(O)c2cccnc2)ccc1S(=O)(=O)Nc1cccc(OC(F)(F)F)c1 (centres unmarked) [Example 1.493]
≤ 200	C=C(C)CC(CO)C(=O)Nc1ccc(S(=O)(=O)Nc2cccc(OC(F)(F)F)c2)c(OCC)c1 (centres unmarked) [Example 1.352]
≤ 200	CCOc1cc(NC(=O)C(c2ccccc2)C(C)O)ccc1S(=O)(=O)Nc1cccc(OC(F)(F)F)c1 (centres unmarked) [Example 1.446]
≤ 200	CCOc1cc(NC(=O)[C@@H](CO)c2ccccc2)ccc1S(=O)(=O)Nc1ccc(C)c(C(F)(F)F)c1 [Example 1.425]
≤ 200	CCOc1cc(NC(=O)C2c3ccccc3CC2O)ccc1S(=O)(=O)Nc1cccc(OC(F)(F)F)c1 (centres unmarked) [Example 1.257]
200 to 750	CCOc1cc(NC(=O)CC(C)O)ccc1S(=O)(=O)Nc1cccc(OC(F)(F)F)c1 (centres unmarked) [Example 1.253]
≤ 200	CCOc1cc(NC(=O)C(O)c2ccc(Cl)cc2)ccc1S(=O)(=O)Nc1cccc(OC(F)(F)F)c1 (centres unmarked) [Example 1.338]
200 to 750	CCOc1cc(NC(=O)[C@@H](CO)c2ccccc2)ccc1S(=O)(=O)Nc1ccc(C)c(Cl)c1 [Example 1.441]
200 to 750	CCOc1cc(NC(=O)[C@@H](CO)c2ccccc2)ccc1S(=O)(=O)Nc1ccc(F)c(C)c1 [Example 1.405]
200 to 750	CCOc1cc(NC(=O)[C@@H](CO)c2ccccc2)ccc1S(=O)(=O)Nc1cccc(OC(C)C)c1 [Example 1.119]
≤ 200	CCOc1cc(NC(=O)[C@@H](CO)c2ccccc2)ccc1S(=O)(=O)Nc1cccc(C(C)(C)C)c1 [Example 1.170]
≤ 200	CCOc1cc(NC(=O)c2cc[nH]c(=O)c2)ccc1S(=O)(=O)Nc1cccc(OC(F)(F)F)c1 [Example 1.103]
200 to 750	CCOc1cc(NC(=O)C(O)c2ccc(C(F)(F)F)cc2)ccc1S(=O)(=O)Nc1cccc(OC(F)(F)F)c1 (centres unmarked) [Example 1.278]
≤ 200	CCOc1cc(NC(=O)[C@@H](CO)c2ccccc2)ccc1S(=O)(=O)Nc1ccc(Cl)c(OC(F)(F)F)c1 [Example 1.389]
≤ 200	CCOc1cc(NC(=O)[C@@H](CO)c2ccccc2)ccc1S(=O)(=O)Nc1ccc(C)c(C(C)C)c1 [Example 1.439]
≤ 200	CCOc1cc(NC(=O)[C@@H](CO)C(C)C)ccc1S(=O)(=O)Nc1ccc(Cl)c(OC(F)(F)F)c1 [Example 1.004]

Second part, the compound before the results:

Compound	IC50 [nM]
COc1cc(NC(=O)c2cc(C)nn2C)ccc1S(=O)(=O)Nc1cccc(C(F)(F)F)c1 [Example 1.254]	200 to 750
COc1cc(NC(=O)CC2CC2)ccc1S(=O)(=O)Nc1cccc(C(F)(F)F)c1 [Example 1.414]	2000 to 20000
CCOc1cc(NC(=O)[C@@H](N)C2CCCC2)ccc1S(=O)(=O)Nc1cccc(OC(F)(F)F)c1 [Example 1.463]	≤ 200
CCc1cc(NC(=O)C(NC(C)=O)C(C)C)ccc1S(=O)(=O)Nc1cccc(OC(F)(F)F)c1 (centres unmarked) [Example 1.487]	≤ 200
CCOc1cc(NC(=O)[C@@H](O)C(C)C)ccc1S(=O)(=O)Nc1cccc(Cl)c1C(F)(F)F [Example 1.579]	2000 to 20000
COc1cc(NC(=O)C2CC(=O)N(C)C2)ccc1S(=O)(=O)Nc1cccc(OC(F)(F)F)c1 (centres unmarked) [Example 1.442]	2000 to 20000
CCc1cc(NC(=O)c2ccnn2C)ccc1S(=O)(=O)Nc1cccc(C(F)(F)F)c1 [Example 1.232]	≤ 200
Cc1cc(NC(=O)c2cncs2)ccc1S(=O)(=O)Nc1cccc(C(F)(F)F)c1 [Example 1.501]	200 to 750
Cc1cc(NC(=O)c2ccoc2C)ccc1S(=O)(=O)Nc1cccc(C(F)(F)F)c1 [Example 1.019]	200 to 750
COc1cc(NC(=O)c2ccnn2C)ccc1S(=O)(=O)Nc1ccc(OC(F)(F)F)c(C)c1 [Example 1.125]	750 to 2000
CCOc1cc(NC(=O)[C@@H](O)C(C)C)ccc1S(=O)(=O)Nc1ccc(Cl)c(C)c1 [Example 1.223]	≤ 200
CCOc1cc(NC(=O)[C@@H](O)C(C)C)ccc1S(=O)(=O)Nc1ccc(OC)c(C(F)(F)F)c1 [Example 1.021]	≤ 200
CCOc1cc(NC(=O)CC2(O)CCCCC2)ccc1S(=O)(=O)Nc1cccc(OC(F)(F)F)c1 [Example 1.474]	200 to 750
COc1cc(NC(=O)c2ccnn2C)ccc1S(=O)(=O)Nc1cccc(OC(F)F)c1 [Example 1.041]	200 to 750
CCOc1cc(NC(=O)C(CC)C(O)C2CCOCC2)ccc1S(=O)(=O)Nc1cccc(OC(F)(F)F)c1 (centres unmarked) [Example 1.039]	≤ 200
COc1cc(NC(=O)C(C)C2CCCCC2)ccc1S(=O)(=O)Nc1cccc(C(F)(F)F)c1 (centres unmarked) [Example 1.273]	750 to 2000
CCOc1cc(NC(=O)[C@@H](O)C(C)C)ccc1S(=O)(=O)Nc1cccc(C(F)(F)F)c1C [Example 1.312]	2000 to 20000
CCOc1cc(NC(=O)[C@@H](O)C(C)C)ccc1S(=O)(=O)Nc1cccc(C2CC2)c1 [Example 1.308]	≤ 200
CCOc1cc(NC(=O)C2CCCC(=O)C2)ccc1S(=O)(=O)Nc1cccc(OC(F)(F)F)c1 (centres unmarked) [Example 1.269]	200 to 750
Cn1nccc1C(=O)Nc1ccc(S(=O)(=O)Nc2cccc(C(F)(F)F)c2)c(F)c1 [Example 1.256]	2000 to 20000
CCOc1cc(NC(=O)c2ccc(OC)nc2)ccc1S(=O)(=O)Nc1cccc(OC(F)(F)F)c1 [Example 1.413]	≤ 200
CC(=O)Nc1ccc(S(=O)(=O)Nc2cccc(C(F)(F)F)c2)c(OC(F)(F)F)c1 [Example 1.264]	2000 to 20000
CCOc1cc(NC(=O)c2cc(=O)n(C)cc2C)ccc1S(=O)(=O)Nc1cccc(OC(F)(F)F)c1 [Example 1.126]	≤ 200
COc1cc(NC(=O)C2CC3C=CC2O3)ccc1S(=O)(=O)Nc1cccc(OC(F)(F)F)c1 (centres unmarked) [Example 1.179]	200 to 750
CCOc1cc(NC(=O)C(C(=O)O)C2CCOCC2)ccc1S(=O)(=O)Nc1cccc(OC(F)(F)F)c1 (centres unmarked) [Example 1.377]	≤ 200

Compound	IC50 [nM]
COc1cc(NC(=O)[C@@H](O)C(C)C)ccc1S(=O)(=O)Nc1cccc(OC(F)(F)F)c1 [Example 1.438]	≤ 200
CCOc1cc(NC(=O)c2ccnc(N)c2)ccc1S(=O)(=O)Nc1cccc(OC(F)(F)F)c1 [Example 1.117]	≤ 200
Cc1cc(NC(=O)c2ccno2)ccc1S(=O)(=O)Nc1cccc(C(F)(F)F)c1 [Example 1.067]	200 to 750
CCOc1cc(NC(=O)[C@H]2CCOC[C@@H]2O)ccc1S(=O)(=O)Nc1cccc(OC(F)(F)F)c1 [Example 1.410]	200 to 750
Cc1cc(NC(=O)C(F)(F)F)ccc1S(=O)(=O)Nc1cccc(C(F)(F)F)c1 [Example 1.467]	2000 to 20000
CCOc1cc(NC(=O)[C@H]2CC=CC[C@H]2C(=O)O)ccc1S(=O)(=O)Nc1cccc(OC(F)(F)F)c1 [Example 1.160]	≤ 200
CCOc1cc(NC(=O)[C@@H](CO)C(C)C)ccc1S(=O)(=O)Nc1ccc2c(c1)OC(F)(F)O2 [Example 1.050]	200 to 750
COc1cc(NC(=O)[C@H]2CC[C@@H](OC)CC2)ccc1S(=O)(=O)Nc1cccc(C(F)(F)F)c1 [Example 1.371]	2000 to 20000
Cn1nccc1C(=O)Nc1ccc(S(=O)(=O)Nc2cccc(OC(F)(F)F)c2)c(C#N)c1 [Example 1.289]	750 to 2000
COc1cc(NC(=O)c2ccnn2C)ccc1S(=O)(=O)Nc1ccc(C)c(C(F)(F)F)c1 [Example 1.552]	≤ 200
CCOc1cc(NC(=O)[C@@H](O)C(C)C)ccc1S(=O)(=O)Nc1cccc(OC(F)(F)F)c1F [Example 1.320]	200 to 750
CCOc1cc(NC(=O)[C@@H](O)C(C)C)ccc1S(=O)(=O)Nc1cccc(OC(C)C)c1 [Example 1.074]	200 to 750
Cc1cc(NC(=O)c2ccccn2)ccc1S(=O)(=O)Nc1cccc(C(F)(F)F)c1 [Example 1.098]	2000 to 20000
COc1cc(NC(=O)c2ccnn2C)ccc1S(=O)(=O)Nc1ccc(F)c(C(F)(F)F)c1 [Example 1.248]	750 to 2000
COc1cc(NC(=O)[C@@H](CO)C(C)C)ccc1S(=O)(=O)Nc1ccc(C)c(OC(F)(F)F)c1 [Example 1.191]	≤ 200
CCOc1cc(NC(=O)C(CO)CCC(C)C)ccc1S(=O)(=O)Nc1cccc(OC(F)(F)F)c1 (centres unmarked) [Example 1.128]	≤ 200
Cc1cc(NC(=O)C(C)(C)C)ccc1S(=O)(=O)Nc1cccc(C(F)(F)F)c1 [Example 1.434]	2000 to 20000
CC(=O)Nc1ccc(S(=O)(=O)Nc2cccc(C(F)(F)F)c2)c(F)c1 [Example 1.385]	2000 to 20000
CCCOc1cc(NC(=O)[C@@H](CO)C(C)C)ccc1S(=O)(=O)Nc1cccc(OC(F)(F)F)c1 [Example 1.551]	≤ 200
CCOc1cc(NC(=O)C2CCN(C)CC2)ccc1S(=O)(=O)Nc1cccc(OC(F)(F)F)c1 [Example 1.192]	2000 to 20000
COc1cc(NC(=O)c2ccnn2C)ccc1S(=O)(=O)Nc1ccc(C(F)(F)F)cc1 [Example 1.224]	200 to 750
CCOc1cc(NC(=O)[C@H]2CCOC[C@@H]2C)ccc1S(=O)(=O)Nc1cccc(OC(F)(F)F)c1 (racemic) [Example 1.477]	≤ 200
CCOc1cc(NC(=O)[C@@H](O)C(C)C)ccc1S(=O)(=O)Nc1ccc(C)c(C(F)(F)F)c1 [Example 1.363]	≤ 200
CCOc1cc(NC(=O)C(C)C(O)C2CCCOC2)ccc1S(=O)(=O)Nc1cccc(OC(F)(F)F)c1 (centres unmarked) [Example 1.435]	200 to 750
